# Measurements from patent US6355799B1, “Substituted benzene compounds, process for their preparation, and herbicidal and defoliant compositions containing them” (ISK Americas Incorporated, priority 1997, dated 2002).
# Experiments:
# Format in all cases: in vivo
# [1] = test system: redroot pigweed (Amaranthus retroflexus, AMARE); assay: Pre-emerge test, greenhouse herbicide activity screening; conditions: pre-emerge, rated 14 days after application, 0 = no damage, 100 = complete death
# How it was run: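 Compounds in acetone were track-sprayed at 15-1000 g ai/ha (187 l/ha) on sandy loam pots: pre-emerge one day after seeding, post-emerge at 2-3 leaf stage with 0.25% v/v non-ionic surfactant. Phytotoxicity was rated 14 days later on a 0 (no damage) to 100 (complete death) scale.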
# [2] = test system: ivyleaf morningglory (Ipomoea hederacea, IPOHE); assay: Post-emerge test, greenhouse herbicide activity screening; conditions: phytotoxicity rating 0-100 (0 no damage, 100 complete death), 14 days after application
# How it was run: (§1)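 Fourteen days after spraying, crop and weed injury was graded visually from 0, no effect, to 100, every plant dead. Test substances were dissolved in acetone and applied at 15–1000 g ai/ha with a flat-fan nozzle. Application was either pre-emergence, one day after sowing, or post-emergence at the 2–3 leaf stage.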
# [3] = test system: lambsquarters (Chenopodium album, CHEAL); assay: as above; conditions: phytotoxicity rating 0-100 (0 no damage, 100 complete death), 14 days after application
# How it was run: as §1
# [4] = test system: green foxtail (Setaria viridis, SETVI); assay: as above; conditions: phytotoxicity rating 0-100 (0 no damage, 100 complete death), 14 days after application
# How it was run: as §1
# [5] = test system: johnsongrass (Sorghum halepense, SORHA); assay: as above; conditions: phytotoxicity rating 0-100 (0 no damage, 100 complete death), 14 days after application
# How it was run: as §1
# [6] = test system: common ragweed (Ambrosia artemisizfolia L., AMBEL); assay: as above; conditions: phytotoxicity rating 0-100 (0 no damage, 100 complete death), 14 days after application
# How it was run: as §1
# [7] = test system: velvetleaf (Abutilon theophrasti, ABUTH); assay: as above; conditions: phytotoxicity rating 0-100 (0 no damage, 100 complete death), 14 days after application
# How it was run: as §1
# [8] = test system: sicklepod (Cassia obtusifolia, CASOB); assay: as above; conditions: phytotoxicity rating 0-100 (0 no damage, 100 complete death), 14 days after application
# How it was run: as §1
# [9] = test system: large crabgrass (Digitaria sanguinalis, DIGSA); assay: as above; conditions: phytotoxicity rating 0-100 (0 no damage, 100 complete death), 14 days after application
# How it was run: as §1
# [10] = test system: redroot pigweed (Amaranthus retroflexus, AMARE); assay: as above; conditions: phytotoxicity rating 0-100 (0 no damage, 100 complete death), 14 days after application
# How it was run: as §1
# [11] = test system: barnyardgrass (Echinochloa crus-galli, ECHCG); assay: as above; conditions: phytotoxicity rating 0-100 (0 no damage, 100 complete death), 14 days after application
# How it was run: as §1
# [12] = test system: ivyleaf morningglory (Ipomoea hederacea, IPOHE); assay: Pre-emerge test, greenhouse herbicide activity screening; conditions: pre-emerge, rated 14 days after application, 0 = no damage, 100 = complete death
# How it was run: as §1
# [13] = test system: lambsquarters (Chenopodium album, CHEAL); assay: as above; conditions: pre-emerge, rated 14 days after application, 0 = no damage, 100 = complete death
# How it was run: as §1
# [14] = test system: green foxtail (Setaria viridis, SETVI); assay: as above; conditions: pre-emerge, rated 14 days after application, 0 = no damage, 100 = complete death
# How it was run: as §1
# [15] = test system: johnsongrass (Sorghum halepense, SORHA); assay: as above; conditions: pre-emerge, rated 14 days after application, 0 = no damage, 100 = complete death
# How it was run: as §1
# [16] = test system: common ragweed (Ambrosia artemisizfolia L., AMBEL); assay: as above; conditions: pre-emerge, rated 14 days after application, 0 = no damage, 100 = complete death
# How it was run: as §1
# [17] = test system: velvetleaf (Abutilon theophrasti, ABUTH); assay: as above; conditions: pre-emerge, rated 14 days after application, 0 = no damage, 100 = complete death
# How it was run: as §1
# [18] = test system: sicklepod (Cassia obtusifolia, CASOB); assay: as above; conditions: pre-emerge, rated 14 days after application, 0 = no damage, 100 = complete death
# How it was run: as §1
# [19] = test system: large crabgrass (Digitaria sanguinalis, DIGSA); assay: as above; conditions: pre-emerge, rated 14 days after application, 0 = no damage, 100 = complete death
# How it was run: as §1
# [20] = test system: barnyardgrass (Echinochloa crus-galli, ECHCG); assay: as above; conditions: pre-emerge, rated 14 days after application, 0 = no damage, 100 = complete death
# How it was run: as §1
# [21] = test system: upland rice (Oryza sp., var. Tebonnet, RICE); assay: Post-emerge test, crop safety; conditions: phytotoxicity rating 0-100 (0 no damage, 100 complete death), 14 days after application
# How it was run: as §1
# [22] = test system: field corn (Zea mays L., var. Dekalb 535, CORN); assay: Post-emerge test, crop safety; conditions: phytotoxicity rating 0-100 (0 no damage, 100 complete death), 14 days after application
# How it was run: as §1
# [23] = test system: upland rice (Oryza sp., var. Tebonnet, RICE); assay: Pre-emerge test, crop safety; conditions: pre-emerge, rated 14 days after application, 0 = no damage, 100 = complete death
# How it was run: (§2)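 Herbicidal damage is scored 0 (none) to 100 (complete plant death) two weeks after a simulated field spray. Rates span 15–1000 g ai/ha, delivered in acetone at 187 l/ha. For post-emergence treatments, plants have 2–3 leaves and the spray carries 0.25% v/v non-ionic surfactant.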
# [24] = test system: field corn (Zea mays L., var. Dekalb 535, CORN); assay: Pre-emerge test, crop safety; conditions: pre-emerge, rated 14 days after application, 0 = no damage, 100 = complete death
# How it was run: as §2
smiles,measurement,setting,value
COc1c(Cl)cc(F)c(-n2c(=O)cc(C(F)(F)F)n(C)c2=O)c1NS(=O)(=O)c1ccc(C)cc1 [2-26],"Pre-emerge Herbicidal Activity AMARE (phytotoxicity rating, scale 0-100)",[1]; 63 g ai/ha,0
same,"Pre-emerge Herbicidal Activity AMARE (phytotoxicity rating, scale 0-100)",[1]; 250 g ai/ha,80
same,Post-emerge Herbicidal Activity IPOHE,[2]; 63 g ai/ha,0
same,Post-emerge Herbicidal Activity IPOHE,[2]; 250 g ai/ha,30
same,Post-emerge Herbicidal Activity CHEAL,[3]; 63 g ai/ha,0
same,Post-emerge Herbicidal Activity CHEAL,[3]; 250 g ai/ha,20
same,Post-emerge Herbicidal Activity SETVI,[4]; 63 g ai/ha,0
same,Post-emerge Herbicidal Activity SETVI,[4]; 250 g ai/ha,0
same,Post-emerge Herbicidal Activity SORHA,[5]; 63 g ai/ha,0
same,Post-emerge Herbicidal Activity SORHA,[5]; 250 g ai/ha,0
same,Post-emerge Herbicidal Activity AMBEL,[6]; 63 g ai/ha,0
same,Post-emerge Herbicidal Activity AMBEL,[6]; 250 g ai/ha,0
same,Post-emerge Herbicidal Activity ABUTH,[7]; 63 g ai/ha,0
same,Post-emerge Herbicidal Activity ABUTH,[7]; 250 g ai/ha,40
same,Post-emerge Herbicidal Activity CASOB,[8]; 63 g ai/ha,0
same,Post-emerge Herbicidal Activity CASOB,[8]; 250 g ai/ha,0
same,Post-emerge Herbicidal Activity DIGSA,[9]; 63 g ai/ha,0
same,Post-emerge Herbicidal Activity DIGSA,[9]; 250 g ai/ha,0
same,Post-emerge Herbicidal Activity AMARE,[10]; 63 g ai/ha,0
same,Post-emerge Herbicidal Activity AMARE,[10]; 250 g ai/ha,20
same,Post-emerge Herbicidal Activity ECHCG,[11]; 63 g ai/ha,0
same,Post-emerge Herbicidal Activity ECHCG,[11]; 250 g ai/ha,0
same,"Pre-emerge Herbicidal Activity IPOHE (phytotoxicity rating, scale 0-100)",[12]; 63 g ai/ha,0
same,"Pre-emerge Herbicidal Activity IPOHE (phytotoxicity rating, scale 0-100)",[12]; 250 g ai/ha,0
same,"Pre-emerge Herbicidal Activity CHEAL (phytotoxicity rating, scale 0-100)",[13]; 63 g ai/ha,0
same,"Pre-emerge Herbicidal Activity CHEAL (phytotoxicity rating, scale 0-100)",[13]; 250 g ai/ha,90
same,"Pre-emerge Herbicidal Activity SETVI (phytotoxicity rating, scale 0-100)",[14]; 63 g ai/ha,0
same,"Pre-emerge Herbicidal Activity SETVI (phytotoxicity rating, scale 0-100)",[14]; 250 g ai/ha,0
same,"Pre-emerge Herbicidal Activity SORHA (phytotoxicity rating, scale 0-100)",[15]; 63 g ai/ha,0
same,"Pre-emerge Herbicidal Activity SORHA (phytotoxicity rating, scale 0-100)",[15]; 250 g ai/ha,0
same,"Pre-emerge Herbicidal Activity AMBEL (phytotoxicity rating, scale 0-100)",[16]; 63 g ai/ha,0
same,"Pre-emerge Herbicidal Activity AMBEL (phytotoxicity rating, scale 0-100)",[16]; 250 g ai/ha,0
same,"Pre-emerge Herbicidal Activity ABUTH (phytotoxicity rating, scale 0-100)",[17]; 63 g ai/ha,0
same,"Pre-emerge Herbicidal Activity ABUTH (phytotoxicity rating, scale 0-100)",[17]; 250 g ai/ha,0
same,"Pre-emerge Herbicidal Activity CASOB (phytotoxicity rating, scale 0-100)",[18]; 63 g ai/ha,0
same,"Pre-emerge Herbicidal Activity CASOB (phytotoxicity rating, scale 0-100)",[18]; 250 g ai/ha,0
same,"Pre-emerge Herbicidal Activity DIGSA (phytotoxicity rating, scale 0-100)",[19]; 63 g ai/ha,0
same,"Pre-emerge Herbicidal Activity DIGSA (phytotoxicity rating, scale 0-100)",[19]; 250 g ai/ha,0
same,"Pre-emerge Herbicidal Activity ECHCG (phytotoxicity rating, scale 0-100)",[20]; 63 g ai/ha,0
same,"Pre-emerge Herbicidal Activity ECHCG (phytotoxicity rating, scale 0-100)",[20]; 250 g ai/ha,0
same,Post-emerge Herbicidal Activity RICE (crop damage),[21]; 63 g ai/ha,0
same,Post-emerge Herbicidal Activity RICE (crop damage),[21]; 250 g ai/ha,0
same,Post-emerge Herbicidal Activity CORN (crop damage),[22]; 63 g ai/ha,0
same,Post-emerge Herbicidal Activity CORN (crop damage),[22]; 250 g ai/ha,0
same,"Pre-emerge crop damage RICE (phytotoxicity rating, scale 0-100)",[23]; 63 g ai/ha,0
same,"Pre-emerge crop damage RICE (phytotoxicity rating, scale 0-100)",[23]; 250 g ai/ha,0
same,"Pre-emerge crop damage CORN (phytotoxicity rating, scale 0-100)",[24]; 63 g ai/ha,0
same,"Pre-emerge crop damage CORN (phytotoxicity rating, scale 0-100)",[24]; 250 g ai/ha,0
